Laboratory results taken from ChEMBL document CHEMBL3045830, “Differential effect of triazoles on mycelial growth and disease measurements of Monilinia fructicola isolates with reduced sensitivity to DMI fungicides” (Crop Prot, 2007).
The source made the active and inactive calls.

Columns and labels:
Assay type in all cases: functional, organism-based
[1] = system: Monilinia fructicola; test: Fungicidal activity against Monilinia fructicola isolate GADL133.04 infected peach fruit assessed as decrease in sporulation area at 0.112 ml/l applied 24 hr prior to inoculation after 5 days relative to untreated-control
[2] = system: Monilinia fructicola; test: Fungicidal activity against Monilinia fructicola isolate SCDL71.01 infected peach fruit assessed as decrease in sporulation area at 0.112 ml/l applied 24 hr after inoculation after 5 days relative to untreated-control
[3] = system: Monilinia fructicola; test: Fungicidal activity against Monilinia fructicola isolate SCDL71.01 assessed as reduction in colony diameter after 5 days
[4] = system: Monilinia fructicola; test: Fungicidal activity against Monilinia fructicola isolate SCDL71.01 infected peach fruit assessed as decrease in brown rot disease incidence at 0.112 ml/l applied 24 hr prior to inoculation after 5 days relative to untreated-control
[5] = system: Monilinia fructicola; test: Fungicidal activity against Monilinia fructicola isolate GADL193.04 infected peach fruit assessed as decrease in sporulation area at 0.112 ml/l applied 24 hr after inoculation after 5 days relative to untreated-control
[6] = system: Monilinia fructicola; test: Fungicidal activity against Monilinia fructicola isolate GADL133.04 infected peach fruit assessed as decrease in brown rot disease incidence at 0.112 ml/l applied 24 hr after inoculation after 5 days relative to untreated-control
[7] = system: Monilinia fructicola; test: Fungicidal activity against Monilinia fructicola isolate GADL193.04 infected peach fruit assessed as decrease in brown rot disease incidence at 0.112 ml/l applied 24 hr after inoculation after 5 days relative to untreated-control
[8] = system: Monilinia fructicola; test: Fungicidal activity against Monilinia fructicola isolate GADL133.04 infected peach fruit assessed as decrease in brown rot disease incidence at 0.112 ml/l applied 24 hr prior to inoculation after 5 days relative to untreated-control
[9] = system: Monilinia fructicola; test: Fungicidal activity against Monilinia fructicola isolate GADL193.04 infected peach fruit assessed as decrease in brown rot disease incidence at 0.112 ml/l applied 24 hr prior to inoculation after 5 days relative to untreated-control
[10] = system: Monilinia fructicola; test: Fungicidal activity against Monilinia fructicola isolate GADL193.04 infected peach fruit assessed as decrease in sporulation area at 0.112 ml/l applied 24 hr prior to inoculation after 5 days relative to untreated-control
[11] = system: Monilinia fructicola; test: Fungicidal activity against Monilinia fructicola isolate GADL133.04 assessed as reduction in colony diameter after 5 days
[12] = system: Monilinia fructicola; test: Fungicidal activity against Monilinia fructicola isolate SCDL71.01 infected peach fruit assessed as decrease in brown rot disease incidence at 0.112 ml/l applied 24 hr after inoculation after 5 days relative to untreated-control
[13] = system: Monilinia fructicola; test: Fungicidal activity against Monilinia fructicola isolate SCDL71.01 infected peach fruit assessed as decrease in sporulation area at 0.112 ml/l applied 24 hr prior to inoculation after 5 days relative to untreated-control
[14] = system: Monilinia fructicola; test: Fungicidal activity against Monilinia fructicola isolate GADL133.04 infected peach fruit assessed as decrease in sporulation area at 0.112 ml/l applied 24 hr after inoculation after 5 days relative to untreated-control
[15] = system: Monilinia fructicola; test: Fungicidal activity against Monilinia fructicola isolate GADL193.04 assessed as reduction in colony diameter after 5 days
[16] = system: Monilinia fructicola; test: Fungicidal activity against Monilinia fructicola isolate SCDL71.01 infected peach fruit assessed as decrease in sporulation area at 0.135 ml/l applied 24 hr prior to inoculation after 5 days relative to untreated-control
[17] = system: Monilinia fructicola; test: Fungicidal activity against Monilinia fructicola isolate GADL193.04 infected peach fruit assessed as decrease in sporulation area at 0.135 ml/l applied 24 hr prior to inoculation after 5 days relative to untreated-control
[18] = system: Monilinia fructicola; test: Fungicidal activity against Monilinia fructicola isolate GADL133.04 infected peach fruit assessed as decrease in sporulation area at 0.135 ml/l applied 24 hr prior to inoculation after 5 days relative to untreated-control
[19] = system: Monilinia fructicola; test: Fungicidal activity against Monilinia fructicola isolate GADL193.04 infected peach fruit assessed as decrease in sporulation area at 0.135 ml/l applied 24 hr after inoculation after 5 days relative to untreated-control
[20] = system: Monilinia fructicola; test: Fungicidal activity against Monilinia fructicola isolate GADL193.04 infected peach fruit assessed as decrease in brown rot disease incidence at 0.135 ml/l applied 24 hr after inoculation after 5 days relative to untreated-control
[21] = system: Monilinia fructicola; test: Fungicidal activity against Monilinia fructicola isolate SCDL71.01 infected peach fruit assessed as decrease in brown rot disease incidence at 0.135 ml/l applied 24 hr prior to inoculation after 5 days relative to untreated-control
[22] = system: Monilinia fructicola; test: Fungicidal activity against Monilinia fructicola isolate GADL193.04 infected peach fruit assessed as decrease in brown rot disease incidence at 0.135 ml/l applied 24 hr prior to inoculation after 5 days relative to untreated-control
[23] = system: Monilinia fructicola; test: Fungicidal activity against Monilinia fructicola isolate GADL133.04 infected peach fruit assessed as decrease in sporulation area at 0.135 ml/l applied 24 hr after inoculation after 5 days relative to untreated-control
[24] = system: Monilinia fructicola; test: Fungicidal activity against Monilinia fructicola isolate GADL133.04 infected peach fruit assessed as decrease in brown rot disease incidence at 0.135 ml/l applied 24 hr prior to inoculation after 5 days relative to untreated-control
[25] = system: Monilinia fructicola; test: Fungicidal activity against Monilinia fructicola isolate SCDL71.01 infected peach fruit assessed as decrease in brown rot disease incidence at 0.135 ml/l applied 24 hr after inoculation after 5 days relative to untreated-control
[26] = system: Monilinia fructicola; test: Fungicidal activity against Monilinia fructicola isolate GADL133.04 infected peach fruit assessed as decrease in brown rot disease incidence at 0.135 ml/l applied 24 hr after inoculation after 5 days relative to untreated-control
[27] = system: Monilinia fructicola; test: Fungicidal activity against Monilinia fructicola isolate SCDL71.01 infected peach fruit assessed as decrease in sporulation area at 0.135 ml/l applied 24 hr after inoculation after 5 days relative to untreated-control
[28] = system: Monilinia fructicola; test: Fungicidal activity against Monilinia fructicola isolate SCDL71.01 infected peach fruit assessed as decrease in brown rot disease incidence at 0.131 ml/l applied 24 hr after inoculation after 5 days relative to untreated-control
[29] = system: Monilinia fructicola; test: Fungicidal activity against Monilinia fructicola isolate SCDL71.01 infected peach fruit assessed as decrease in brown rot disease incidence at 0.131 ml/l applied 24 hr prior to inoculation after 5 days relative to untreated-control
[30] = system: Monilinia fructicola; test: Fungicidal activity against Monilinia fructicola isolate GADL133.04 infected peach fruit assessed as decrease in brown rot disease incidence at 0.131 ml/l applied 24 hr after inoculation after 5 days relative to untreated-control
[31] = system: Monilinia fructicola; test: Fungicidal activity against Monilinia fructicola isolate SCDL71.01 infected peach fruit assessed as decrease in sporulation area at 0.131 ml/l applied 24 hr prior to inoculation after 5 days relative to untreated-control
[32] = system: Monilinia fructicola; test: Fungicidal activity against Monilinia fructicola isolate GADL193.04 infected peach fruit assessed as decrease in brown rot disease incidence at 0.131 ml/l applied 24 hr after inoculation after 5 days relative to untreated-control
[33] = system: Monilinia fructicola; test: Fungicidal activity against Monilinia fructicola isolate GADL133.04 infected peach fruit assessed as decrease in sporulation area at 0.131 ml/l applied 24 hr prior to inoculation after 5 days relative to untreated-control
[34] = system: Monilinia fructicola; test: Fungicidal activity against Monilinia fructicola isolate SCDL71.01 infected peach fruit assessed as decrease in sporulation area at 0.131 ml/l applied 24 hr after inoculation after 5 days relative to untreated-control
[35] = system: Monilinia fructicola; test: Fungicidal activity against Monilinia fructicola isolate GADL193.04 infected peach fruit assessed as decrease in sporulation area at 0.131 ml/l applied 24 hr after inoculation after 5 days relative to untreated-control
[36] = system: Monilinia fructicola; test: Fungicidal activity against Monilinia fructicola isolate GADL193.04 infected peach fruit assessed as decrease in brown rot disease incidence at 0.131 ml/l applied 24 hr prior to inoculation after 5 days relative to untreated-control
[37] = system: Monilinia fructicola; test: Fungicidal activity against Monilinia fructicola isolate GADL133.04 infected peach fruit assessed as decrease in sporulation area at 0.131 ml/l applied 24 hr after inoculation after 5 days relative to untreated-control
[38] = system: Monilinia fructicola; test: Fungicidal activity against Monilinia fructicola isolate GADL133.04 infected peach fruit assessed as decrease in brown rot disease incidence at 0.131 ml/l applied 24 hr prior to inoculation after 5 days relative to untreated-control
[39] = system: Monilinia fructicola; test: Fungicidal activity against Monilinia fructicola isolate GADL193.04 infected peach fruit assessed as decrease in sporulation area at 0.131 ml/l applied 24 hr prior to inoculation after 5 days relative to untreated-control

N#CC(CCc1ccc(Cl)cc1)(Cn1cncn1)c1ccccc1 (stereo not given) [FENBUCONAZOLE]
0.019 uL/ml: EC50 [3]
active: Activity [1] | Activity [2] | Activity [4] | Activity [5] | Activity [6] | Activity [7] | Activity [8] | Activity [9] | Activity [10] | Activity [11] | Activity [12] | Activity [13] | Activity [14] | Activity [15]

CC(C)(C)C(O)(CCc1ccc(Cl)cc1)Cn1cncn1 (stereo not given) [TEBUCONAZOLE]
active: Activity [16] | Activity [17] | Activity [18] | Activity [11] | Activity [19] | Activity [20] | Activity [21] | Activity [22] | Activity [23] | Activity [24] | Activity [25] | Activity [26] | Activity [27] | Activity [15]
0.018 uL/ml: EC50 [3]

CCCC1COC(Cn2cncn2)(c2ccc(Cl)cc2Cl)O1 (stereo not given) [PROPICONAZOLE]
0.023 uL/ml: EC50 [3]
active: Activity [28] | Activity [29] | Activity [30] | Activity [31] | Activity [32] | Activity [33] | Activity [11] | Activity [34] | Activity [35] | Activity [36] | Activity [37] | Activity [38] | Activity [39] | Activity [15]
